Molecules are shown by their SMILES. pEC50: −log10 of the molar value.

The target in the assay is T1, CB1 (CB1-Nluc) (Homo sapiens, UniProt P21554).
T1 construct: gene CNR1; CB1 with C-terminal NanoLuc (CB1-Nluc), stably co-expressed in HEK293-TR cells with NES-venus-mini-Gsi (Gs-based chimera with Gi1 C-terminal residues) as BRET acceptor
Description: NanoBRET venus-mini-Gsi recruitment. Format: cell-based.

T1 sequence (P21554 whole entry): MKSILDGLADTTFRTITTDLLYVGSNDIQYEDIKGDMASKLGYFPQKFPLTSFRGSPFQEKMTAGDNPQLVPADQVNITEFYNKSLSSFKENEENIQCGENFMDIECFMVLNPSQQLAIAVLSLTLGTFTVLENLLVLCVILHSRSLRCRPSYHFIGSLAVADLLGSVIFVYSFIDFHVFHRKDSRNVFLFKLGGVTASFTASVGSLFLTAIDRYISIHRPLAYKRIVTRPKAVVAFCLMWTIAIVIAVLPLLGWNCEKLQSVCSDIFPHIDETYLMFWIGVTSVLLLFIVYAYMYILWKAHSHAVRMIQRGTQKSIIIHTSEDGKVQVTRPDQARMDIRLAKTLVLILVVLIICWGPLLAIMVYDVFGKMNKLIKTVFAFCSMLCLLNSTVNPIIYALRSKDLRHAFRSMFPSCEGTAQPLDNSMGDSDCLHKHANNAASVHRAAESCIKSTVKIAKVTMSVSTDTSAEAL

What is called pEC50 is −log10 of the EC50, conventionally taken in molar units. `CCCCCCC(C)(C)c1cc(O)c2c(c1)OC(C)(C)[C@@H]1CC[C@@H](CO)C[C@@H]21` [HU243] showed a negative logarithm of the EC50 (pEC50) of 8.69.
Regarding `CC1=CC[C@@H]2[C@@H](C1)c1c(O)cc(C(C)(C)CCCCCCBr)cc1OC2(C)C` [AM11542, (6aR,10aR)-3-(8-bromo-2-methyloctan-2-yl)-6,6,9-trimethyl-6a,7,10,10a-tetrahydro-6H-benzo[c]chromen-1-ol], the negative logarithm of the EC50 (pEC50) was 8.47.
Take `CCCCCCC(C)(C)c1cc(O)c2c(c1)OC(C)(C)[C@@H]1CC=C(CO)C[C@@H]21` [HU210, (6aR)-trans-3-(1,1-Dimethylheptyl)-6a,7,10,10a-tetrahydro-1-hydroxy-6,6-dimethyl-6H-dibenzo[b,d]pyran-9-methanol]: the pEC50 is 8.62.
Regarding `CCCCCCC(C)(C)c1cc(OC)c2c(c1)OC(C)(C)[C@@H]1CC=C(C)C[C@@H]21` [L759633], the negative logarithm of the EC50 (pEC50) is 6.38.
The compound `CCCc1cc(O)c2c(c1)OC(C)(C)[C@@H]1CCC(C)=C[C@@H]21` [THCv] gave a negative logarithm of the EC50 (pEC50) of 6.70.
`CCCCCCC(C)(C)c1cc(O)c2c(c1)OC(C)(C)C1CCC(=O)CC21` (centres unmarked) [Nabilone] had a pEC50 of 7.86.
Consider `CCCC(C)(C)c1ccc2c(c1)OC(C)(C)[C@@H]1CC=C(C)C[C@@H]21` [JWH133, (6aR,10aR)-3-(1,1-Dimethylbutyl)-6a,7,10,10a-tetrahydro-6,6,9-trimethyl-6H-dibenzo[b,d]pyran], for which the negative-log EC50 (pEC50) was 5.94.
The compound `CC(C)(CCCCCCN=C=S)c1cc(O)c2c(c1)OC(C)(C)[C@@H]1CC[C@@H](CO)C[C@@H]21` [AM841, (6aR,9 R,10aR)-9-(hydroxymethyl)-3-(8-isothiocyanato-2-methyloctan-2-yl)-6,6-dimethyl-6a,7,8,9,10,10a-hexahydro-6H-benzo[c]chromen-1-ol] had a pEC50 of 8.47.
